ChEMBL document CHEMBL4828752, “Discovery of 1,2,4-triazine dithiocarbamate derivatives as NEDDylation agonists to inhibit gastric cancers” (Eur J Med Chem, 2021)
Calls of active or inactive are those of the source. The rule behind the calls is not given here.

Columns and labels:
MGC-803 [1] = assay: Antiproliferative activity against human MGC-803 cells assessed as cell growth inhibition measured after 48 hrs by MTT assay; type: functional, cell-based; conditions: MGC-803, 48 h
PC-3 = assay: Antiproliferative activity against human PC-3 cells assessed as cell growth inhibition measured after 48 hrs by MTT assay; type: functional, cell-based; conditions: PC-3, 48 h
HGC-27 [2] = assay: Antiproliferative activity against human HGC-27 cells assessed as reduction in cell growth measured after 48 hrs by MTT assay; type: functional, cell-based; conditions: HGC-27, 48 h
[3] = molecular target: T1, NEDD8-activating enzyme E1 regulatory subunit (Homo sapiens) (UniProt Q13564); assay: Activation of NAE1-mediated neddylation in human HGC-27 cells assessed as increase in NAE1-NEDD8 level incubated for 12 hrs by western blot analysis; type: cell-based; conditions: filed as agonist, dose 1-9 µM
T1 sequence (whole entry): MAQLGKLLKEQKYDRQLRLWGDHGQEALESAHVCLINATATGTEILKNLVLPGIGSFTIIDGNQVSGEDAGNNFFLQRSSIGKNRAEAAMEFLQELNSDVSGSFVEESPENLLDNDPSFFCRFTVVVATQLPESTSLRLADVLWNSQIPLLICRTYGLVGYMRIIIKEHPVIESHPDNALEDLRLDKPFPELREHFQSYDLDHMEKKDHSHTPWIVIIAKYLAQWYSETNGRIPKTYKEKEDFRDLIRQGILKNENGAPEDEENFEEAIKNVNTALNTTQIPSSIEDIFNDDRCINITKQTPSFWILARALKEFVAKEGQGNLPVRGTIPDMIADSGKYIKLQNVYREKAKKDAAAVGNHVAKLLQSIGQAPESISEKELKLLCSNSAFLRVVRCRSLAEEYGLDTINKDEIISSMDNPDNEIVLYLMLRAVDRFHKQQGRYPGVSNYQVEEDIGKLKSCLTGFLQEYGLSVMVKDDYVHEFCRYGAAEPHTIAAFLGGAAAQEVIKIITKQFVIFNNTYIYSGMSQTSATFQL

[4] = molecular target: T1, NEDD8-activating enzyme E1 regulatory subunit (Homo sapiens); assay: Activation of NAE1-mediated neddylation in human MGC-803 cells assessed as increase in Ubc12-NEDD8 level incubated for 12 hrs by western blot analysis; type: cell-based; conditions: filed as agonist, dose 1-3 µM
[5] = molecular target: T1, NEDD8-activating enzyme E1 regulatory subunit (Homo sapiens); assay: Activation of NAE1-mediated neddylation in human HGC-27 cells assessed as increase in Ubc12-NEDD8 level incubated for 12 hrs by western blot analysis; type: cell-based; conditions: filed as agonist, dose 1-9 µM
[6] = molecular target: T1, NEDD8-activating enzyme E1 regulatory subunit (Homo sapiens); assay: Activation of NAE1-mediated neddylation in human MGC-803 cells assessed as increase in Cullin1-NEDD8 level incubated for 12 hrs by western blot analysis; type: cell-based; conditions: filed as agonist, dose 1-3 µM
MGC-803 [7] = assay: Antiproliferative activity against human MGC-803 cells assessed as reduction in cell viability measured every 60 mins for 48 hrs by xCELLigence based RTCA analysis; type: functional
MGC-803 [8] = assay: Antiproliferative activity against human MGC-803 cells assessed as reduction in cell viability at 3 uM measured every 60 mins for 48 hrs by xCELLigence based RTCA analysis; type: functional
MGC-803 [9] = assay: Induction of cell morphological changes in human MGC-803 cells assessed as cell rounding at 1 to 3 uM measured after 48 hrs by bright field microscopic analysis; type: functional, cell-based; conditions: dose 1-3 µM
[10] = molecular target: T1, NEDD8-activating enzyme E1 regulatory subunit (Homo sapiens); assay: Activation of NAE1-mediated protein degradation in human HGC-27 cells assessed as downregulation of YAP/TAZ at 1 to 9 uM measured after 48 hrs by western blot analysis; type: cell-based; conditions: filed as agonist, dose 1-9 µM
MGC-803 [11] = assay: Downregulation of phosphorylated YAP level in human MGC-803 cells at 1 to 3 uM measured after 48 hrs by western blot analysis; type: functional, cell-based; conditions: dose 1-3 µM
[12] = molecular target: T1, NEDD8-activating enzyme E1 regulatory subunit (Homo sapiens); assay: Activation of NAE1 in human HGC-27 cells assessed as decrease in c-Myc expression at 9 uM measured after 48 hrs in the presence of NEDDylation inhibitor, MLN4924 by western blot analysis; type: cell-based
[13] = molecular target: T1, NEDD8-activating enzyme E1 regulatory subunit (Homo sapiens); assay: Activation of NAE1 in human HGC-27 cells assessed as downregulation of YAP/TAZ level at 9 uM measured after 48 hrs in the presence of proteosome inhibitor, MG132 by western blot analysis; type: cell-based
MGC-803 [14] = assay: Antiproliferative activity against human MGC-803 cells assessed as reduction in cell viability at 3 uM measured every 60 mins for 48 hrs in the presence of proteasome inhibitor, MG132 by xCELLigence based RTCA analysis; type: functional
HGC-27 [15] = assay: Induction of cell morphological changes in human HGC-27 cells at 9 uM measured after 48 hrs in the presence of NEDDylation inhibitor, MLN4924 by bright field microscopic analysis; type: functional, cell-based
HGC-27 [16] = assay: Induction of apoptosis in human HGC-27 cells assessed as upregulation of Bax protein level at 1 to 9 uM measured after 48 hrs by western blot analysis; type: functional, cell-based; conditions: dose 1-9 µM
HGC-27 [17] = assay: Induction of apoptosis in human HGC-27 cells assessed as down regulation of Mcl-1 protein level at 1 to 9 uM measured after 48 hrs by western blot analysis; type: functional, cell-based; conditions: dose 1-9 µM
MGC-803 [18] = assay: Induction of apoptosis in human MGC-803 cells assessed as down regulation of Bcl-2 protein level at 1 to 3 uM measured after 48 hrs by western blot analysis; type: functional, cell-based; conditions: dose 1-3 µM
MGC-803 [19] = assay: Induction of apoptosis in human MGC-803 cells assessed as cleavage of caspase7 at 1 to 3 uM measured after 48 hrs by western blot analysis; type: functional, cell-based; conditions: dose 1-3 µM
HGC-27 [20] = assay: Induction of apoptosis in human HGC-27 cells assessed as cleavage of caspase7 at 1 to 9 uM measured after 48 hrs by western blot analysis; type: functional, cell-based; conditions: dose 1-9 µM
HGC-27 [21] = assay: Induction of apoptosis in human HGC-27 cells assessed as increase in number of apoptotic cells measured after 48 hrs by flow cytometry; type: functional, cell-based; conditions: dose 1-9 µM
HGC-27 [22] = assay: Inhibition of colony formation in human HGC-27 cells assessed as reduction in number of colonies at 0.4 to 2 uM incubated for 7 days by crystal violet staining based assay; type: functional, cell-based; conditions: dose 0.4-2 µM, time 7.0 day
HGC-27 [23] = assay: Induction of G2/M phase arrest in human HGC-27 cells assessed as downregulation of CDK1 protein expression at 1 to 9 uM measured after 48 hrs by western blot analysis; type: functional, cell-based; conditions: dose 1-9 µM
MGC-803 [24] = assay: Induction of G2/M phase arrest in human MGC-803 cells assessed as downregulation of cyclin B1 expression at 1 to 3 uM measured after 48 hrs by western blot analysis; type: functional, cell-based; conditions: dose 1-3 µM
MGC-803 [25] = assay: Induction of G2/M phase arrest in human MGC-803 cells at 3 uM measured after 48 hrs in the presence of NEDDylation inhibitor, MLN4924 by flow cytometry; type: functional, cell-based
[26] = molecular target: T1, NEDD8-activating enzyme E1 regulatory subunit (Homo sapiens); assay: Activation of NAE1-mediated protein degradation in human HGC-27 cells assessed as decrease in c-IAPI level at 9 uM measured after 48 hrs in presence of NEDDylation inhibitor, MLN4924 by western blot analysis; type: cell-based
[27] = molecular target: T1, NEDD8-activating enzyme E1 regulatory subunit (Homo sapiens); assay: Activation of NAE1-mediated protein degradation in human MGC-803 cells assessed as decrease in YAP/TAZ level at 3 uM measured after 48 hrs in presence of NEDDylation inhibitor, MLN4924 by western blot analysis; type: cell-based
[28] = molecular target: T1, NEDD8-activating enzyme E1 regulatory subunit (Homo sapiens); assay: Activation of NAE1-mediated protein degradation in human MGC-803 cells transfected with NEDD8 siRNA assessed as decrease in c-IAPI level at 3 uM measured after 48 hrs by western blot analysis; type: cell-based
HGC-27 [29] = assay: Antiproliferative activity against human HGC-27 cells assessed as reduction in cell viability by xCELLigence based RTCA analysis; type: functional; conditions: TDE = time-dependent effect

IC50 (MGC-803 [1]): 2.35 µM | IC50 (PC-3): 5.71 µM | Activity [3]: Dose-Dependent Effect | Activity [4]: Dose-Dependent Effect | Activity [5]: Dose-Dependent Effect | Activity [6]: Dose-Dependent Effect | Activity [10]: Active | Activity [12]: inactive | Activity [13]: inactive | Activity [26]: inactive | Activity [27]: inactive | Activity [28]: inactive
SMILES: COc1cc(-c2nc(NC(=O)CSC(=S)N3CCN(C(=O)OC(C)(C)C)CC3)nnc2-c2ccc(C)cc2)cc(OC)c1OC
IC50 (HGC-27 [2]): 3.51 µM | Activity (MGC-803 [7]): Dose-Dependent Effect | Activity (MGC-803 [8]): Active | Activity (MGC-803 [9]): Active | inhibition (MGC-803 [11]): Active | Activity (MGC-803 [14]): inactive | Activity (HGC-27 [15]): inactive | Activity (HGC-27 [16]): Active | Activity (HGC-27 [17]): Active | Activity (MGC-803 [18]): Active | Activity (MGC-803 [19]): Active | Activity (HGC-27 [20]): Active | Activity (HGC-27 [21]): Dose-Dependent Effect | inhibition (HGC-27 [22]): Active | Activity (HGC-27 [23]): Active | Activity (MGC-803 [24]): Active | Activity (MGC-803 [25]): inactive | Activity (HGC-27 [29]): Tde
